US9924716B2, “Molecules having pesticidal utility, and intermediates, compositions, and processes, related thereto” (Dow AgroSciences LLC, priority 2016, dated 2018)

How the values were obtained:
Format in all cases: in vivo
[1] = test system: Green Peach Aphid (Myzus persicae, MYZUPE); test: Bioassay on Green Peach Aphid (GPA), foliar spray on cabbage seedlings; details: Table ABC Biological Results
Procedure: Certain molecules disclosed in this document were tested against GPA using procedures described in the following example. In the reporting of the results, the “GPA & YFM Rating Table” was used (See Table Section). Cabbage seedlings grown in 3-inch pots, with 2-3 small (3-5 cm) true leaves, were used as test substrate. The seedlings were infested with 20-50 GPA (wingless adult and nymph stages) one day prior to chemical application. Four pots with individual seedlings were used for each treatment. Test molecules (2 mg) were dissolved in 2 mL of acetone/methanol (1:1) solvent, forming stock solutions of 1000 ppm test molecule. The stock solutions were diluted 5× with 0.025% Tween 20 in water to obtain the solution at 200 ppm test molecule. A hand-held aspirator-type sprayer was used for spraying a solution to both sides of […] leaves until runoff. Reference plants (solvent check) were sprayed with the diluent only containing 20% by volume of acetone/methanol (1:1) solvent. Treated plants were held in a holding room for three days at approximately 25° C. and ambient relative humidity (RH) prior to grading. […] Percent Control was measured by using Abbott's correction formula (W. S. Abbott, “A Method of Computing the Effectiveness of an Insecticide” J. Econ. Entomol. 18 (1925), pp. 265-267) as follows. […]

[2] = test system: Cabbage Looper (Trichoplusia ni, TRIPNI) second instar larvae; test: Bioassay on Cabbage Looper (CL), 128-well diet tray assay; details: Cabbage Looper, Table ABC Biological Results, read-out: CL rating
How it was run: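 Second instar larvae (1–5 per well) on artificial diet surface-treated with 50 μg/cm² compound in 90:10 acetone-water, eight wells per compound. Held 5–7 days at 25 °C, 14:10 light-dark; percent mortality averaged across wells.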

[3] = test system: Beet Armyworm (Spodoptera exigua, LAPHEG) second instar larvae; test: Bioassay on Beet Armyworm (BAW), 128-well diet tray assay; details: Beet Armyworm, Table ABC Biological Results, read-out: BAW rating
How it was run: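 Second-instar larvae, one to five per well, on artificial diet surface-treated with 50 μg/cm^2 compound in acetone-water, dried; eight wells per compound. Held 25 °C, 14:10 light-dark, five to seven days; percent mortality averaged over wells.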

[4] = test system: Yellow Fever Mosquito (Aedes aegypti, AEDSAE) larvae; test: Bioassay on Yellow Fever Mosquito (YFM), 96-well plate larval assay; details: Table ABC Biological Results
Procedure: Certain molecules disclosed in this document were tested against YFM using procedures described in the following paragraph. In the reporting of the results, the “GPA & YFM Rating Table” was used (See Table Section).
Master plates containing 400 μg of a molecule dissolved in 100 μL of dimethyl sulfoxide (DMSO) (equivalent to a 4000 ppm solution) are used. A master plate of assembled molecules contains 15 μL per well. To this plate, 135 μL of a 90:10 water:acetone mixture is added to each well. A robot (Biomek® NXP Laboratory Automation Workstation) is programmed to dispense 15 μL aspirations from the master plate into an empty 96-well shallow plate (“daughter” plate). There are 6 reps (“daughter” plates) created per master. The created daughter plates are then immediately infested with YFM larvae.
The day before plates are to be treated, mosquito eggs are placed in Millipore water containing liver powder to begin hatching (4 g. into 400 mL). After the daughter plates are created using the robot, they are infested with 220 μL of the liver powder/larval mosquito mixture (about 1 day-old larvae). After plates are infested with mosquito larvae, a non-evaporative lid is used to cover the plate to reduce drying. Plates are held at room temperature for 3 days prior to grading. After 3 days, each well is observed and scored based on mortality. The results are indicated in the table entitled “Table ABC: Biological Results” (See Table Section).

Row | Compound | GPA rating [1] | pest or weed control at 50 µg/cm2 [2] | pest or weed control at 50 µg/cm2 [3] | YFM rating [4]
1 | C[C@H](NC(=O)CC(F)(F)F)NC(=O)c1ccc(/C(F)=C/C(c2cc(Cl)c(Br)c(Cl)c2)C(F)(F)F)cc1C(F)(F)F (stereo partly drawn) [F31, 4-((Z)-3-(4-Bromo-3,5-dichlorophenyl)-1,4,4,4-tetrafluorobut-1-en-1-yl)-2-(trifluoromethyl)-N—((R)-1-(3,3,3-trifluoropropanamido)ethyl)benzamide] | B (More than 0-Less than 80) | 50 to 100% | 50 to 100% | A (80-100)
2 | C[C@H](NC(=O)CCC(F)(F)F)NC(=O)c1ccc(/C(F)=C/C(c2cc(Cl)c(F)c(Cl)c2)C(F)(F)F)cc1C(F)(F)F (stereo partly drawn) [F17, 4-((Z)-3-(3,5-Dichloro-4-fluorophenyl)-1,4,4,4-tetrafluorobut-1-en-1-yl)-N—((R)-1-(4,4,4-trifluorobutanamido)ethyl)-2-(trifluoromethyl)benzamide] | B (More than 0-Less than 80) | 50 to 100% | 50 to 100% | A (80-100)
